Legend:
Phosphodiesterase 3 = Phosphodiesterase 3 (Homo sapiens, UniProt Q14432+Q13370); assay: Inhibition of PDE3; assay type: protein assay
[1] = biological target: High affinity cGMP-specific 3',5'-cyclic phosphodiesterase 9A (Homo sapiens, UniProt O76083); assay: Inhibition of PDE9
[2] = biological target: High affinity cAMP-specific and IBMX-insensitive 3',5'-cyclic phosphodiesterase 8B (Homo sapiens, UniProt O95263); assay: Inhibition of PDE8B
[3] = biological target: Dual 3',5'-cyclic-AMP and -GMP phosphodiesterase 11A (Homo sapiens, UniProt Q9HCR9); assay: Inhibition of PDE11
[4] = biological target: High affinity cAMP-specific and IBMX-insensitive 3',5'-cyclic phosphodiesterase 8A (Homo sapiens, UniProt O60658); assay: Inhibition of PDE8A
Chain of High affinity cAMP-specific and IBMX-insensitive 3',5'-cyclic phosphodiesterase 8A (O60658 whole entry): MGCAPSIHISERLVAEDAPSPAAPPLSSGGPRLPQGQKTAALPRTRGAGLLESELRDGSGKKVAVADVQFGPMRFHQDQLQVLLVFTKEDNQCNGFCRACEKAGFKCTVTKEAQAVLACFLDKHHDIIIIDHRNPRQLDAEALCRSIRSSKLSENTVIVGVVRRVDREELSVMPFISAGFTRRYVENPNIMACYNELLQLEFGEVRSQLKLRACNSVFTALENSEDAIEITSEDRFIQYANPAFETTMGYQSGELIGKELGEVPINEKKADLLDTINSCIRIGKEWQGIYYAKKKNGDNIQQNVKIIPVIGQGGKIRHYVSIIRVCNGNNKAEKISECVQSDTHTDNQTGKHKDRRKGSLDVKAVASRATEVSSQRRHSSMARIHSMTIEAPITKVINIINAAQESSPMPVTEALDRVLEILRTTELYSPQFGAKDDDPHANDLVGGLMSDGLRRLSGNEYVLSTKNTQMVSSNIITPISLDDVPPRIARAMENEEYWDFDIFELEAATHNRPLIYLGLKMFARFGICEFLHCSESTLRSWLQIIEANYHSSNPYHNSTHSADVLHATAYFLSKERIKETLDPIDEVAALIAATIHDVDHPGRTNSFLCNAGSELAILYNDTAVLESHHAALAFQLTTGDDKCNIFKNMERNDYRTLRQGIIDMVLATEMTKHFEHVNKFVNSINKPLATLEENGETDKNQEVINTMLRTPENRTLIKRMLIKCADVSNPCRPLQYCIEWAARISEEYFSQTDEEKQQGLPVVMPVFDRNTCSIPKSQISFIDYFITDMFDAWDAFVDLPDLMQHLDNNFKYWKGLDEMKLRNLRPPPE

[5] = biological target: cGMP-dependent 3',5'-cyclic phosphodiesterase (Homo sapiens, UniProt O00408); assay: Inhibition of PDE2
Chain of cGMP-dependent 3',5'-cyclic phosphodiesterase (O00408 whole entry): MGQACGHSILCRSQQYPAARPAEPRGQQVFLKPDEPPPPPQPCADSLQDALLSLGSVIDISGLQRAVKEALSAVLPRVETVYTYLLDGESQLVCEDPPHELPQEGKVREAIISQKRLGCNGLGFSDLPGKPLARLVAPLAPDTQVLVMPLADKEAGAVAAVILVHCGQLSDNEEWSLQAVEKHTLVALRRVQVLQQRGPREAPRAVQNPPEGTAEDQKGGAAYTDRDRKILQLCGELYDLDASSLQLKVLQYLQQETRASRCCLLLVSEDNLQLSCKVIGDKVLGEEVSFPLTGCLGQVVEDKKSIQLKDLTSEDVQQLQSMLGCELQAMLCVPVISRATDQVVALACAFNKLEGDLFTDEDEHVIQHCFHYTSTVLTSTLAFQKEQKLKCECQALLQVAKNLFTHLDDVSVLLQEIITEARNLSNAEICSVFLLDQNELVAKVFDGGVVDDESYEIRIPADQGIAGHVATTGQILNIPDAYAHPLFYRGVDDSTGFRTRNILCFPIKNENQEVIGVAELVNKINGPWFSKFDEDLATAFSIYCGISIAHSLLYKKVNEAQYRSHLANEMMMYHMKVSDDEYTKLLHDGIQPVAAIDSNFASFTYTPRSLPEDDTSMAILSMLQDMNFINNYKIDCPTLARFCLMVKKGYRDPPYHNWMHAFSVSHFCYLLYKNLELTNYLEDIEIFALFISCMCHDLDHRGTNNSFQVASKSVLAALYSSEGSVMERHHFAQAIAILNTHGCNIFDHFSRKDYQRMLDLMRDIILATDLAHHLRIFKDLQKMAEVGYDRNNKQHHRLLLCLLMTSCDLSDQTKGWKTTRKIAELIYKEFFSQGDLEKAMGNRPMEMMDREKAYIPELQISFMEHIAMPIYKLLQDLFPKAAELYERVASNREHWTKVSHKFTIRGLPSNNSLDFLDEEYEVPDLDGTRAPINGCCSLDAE

[6] = biological target: T1, 3',5'-cyclic-AMP phosphodiesterase 4D (Homo sapiens, UniProt Q08499); conditions: Blood
T1 sequence (Q08499 whole entry): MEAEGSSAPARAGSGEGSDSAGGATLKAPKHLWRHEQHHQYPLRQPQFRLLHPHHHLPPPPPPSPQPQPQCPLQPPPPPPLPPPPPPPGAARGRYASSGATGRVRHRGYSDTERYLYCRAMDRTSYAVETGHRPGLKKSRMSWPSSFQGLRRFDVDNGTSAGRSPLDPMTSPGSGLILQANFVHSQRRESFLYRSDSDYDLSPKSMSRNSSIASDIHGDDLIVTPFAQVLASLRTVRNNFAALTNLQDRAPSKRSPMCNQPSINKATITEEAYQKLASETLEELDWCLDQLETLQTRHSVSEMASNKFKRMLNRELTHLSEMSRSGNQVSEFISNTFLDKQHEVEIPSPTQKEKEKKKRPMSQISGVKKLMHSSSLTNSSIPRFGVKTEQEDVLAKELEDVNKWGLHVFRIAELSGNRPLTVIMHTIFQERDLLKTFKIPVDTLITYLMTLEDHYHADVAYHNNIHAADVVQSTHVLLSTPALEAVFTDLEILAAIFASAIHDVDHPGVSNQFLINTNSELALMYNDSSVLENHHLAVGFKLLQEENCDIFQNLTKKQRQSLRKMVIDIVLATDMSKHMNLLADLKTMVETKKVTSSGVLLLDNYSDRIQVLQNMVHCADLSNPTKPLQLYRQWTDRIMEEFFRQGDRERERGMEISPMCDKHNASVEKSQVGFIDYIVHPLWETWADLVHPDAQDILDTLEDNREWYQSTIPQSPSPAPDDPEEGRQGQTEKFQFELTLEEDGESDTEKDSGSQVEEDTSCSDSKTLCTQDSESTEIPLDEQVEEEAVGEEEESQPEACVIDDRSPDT
Description: Inhibition of release of Eosinophil derived neurotoxin in human whole blood

[7] = biological target: Glucocorticoid receptor (Homo sapiens) (UniProt P04150); assay: Binding affinity to glucocorticoid receptor at 10 uM
[8] = biological target: Melanocortin receptor 4 (Homo sapiens) (UniProt P32245); assay: Binding affinity to MCR4 at 10 uM
[9] = biological target: cGMP-specific 3',5'-cyclic phosphodiesterase (Homo sapiens, UniProt O76074); assay: Inhibition of PDE5
[10] = biological target: Sodium-dependent noradrenaline transporter (Homo sapiens) (UniProt P23975); assay: Binding affinity to norepinephrine transporter at 10 uM
[11] = biological target: Beta-1 adrenergic receptor (Homo sapiens) (UniProt P08588); assay: Binding affinity to adrenergic beta-1 receptor at 10 uM
[12] = biological target: D(2) dopamine receptor (Homo sapiens) (UniProt P14416); assay: Binding affinity to dopamine D2 receptor at 10 uM
[13] = biological target: cAMP and cAMP-inhibited cGMP 3',5'-cyclic phosphodiesterase 10A (Homo sapiens, UniProt Q9Y233); assay: Inhibition of PDE10
[14] = biological target: Beta-2 adrenergic receptor (Homo sapiens) (UniProt P07550); assay: Binding affinity to adrenergic beta2 receptor at 10 uM
[15] = biological target: Muscarinic acetylcholine receptor M2 (Homo sapiens) (UniProt P08172); assay: Binding affinity to Muscarinic M2 receptor at 10 uM
[16] = biological target: Adrenergic receptor alpha-1 (Homo sapiens) (UniProt P35348+P25100+P35368); assay: Binding affinity to Adrenergic alpha-1 receptor at 10 uM; assay type: protein assay
[17] = biological target: Substance-P receptor (Homo sapiens) (UniProt P25103); assay: Binding affinity to neurokinin K1 receptor at 10 uM
[18] = biological target: Serotonin 3 (5-HT3) receptor (Homo sapiens) (UniProt P46098+A5X5Y0+O95264+Q70Z44+Q8WXA8); assay: Binding affinity to serotonin 5HT3 receptor at 10 uM; assay type: protein-complex assay
[19] = biological target: Adenosine receptor A1 (Homo sapiens) (UniProt P30542); assay: Binding affinity to adenosine A1 receptor at 10 uM
[20] = Binding affinity to GABA receptor at 10 uM
[21] = biological target: Kappa-type opioid receptor (Homo sapiens) (UniProt P41145); assay: Binding affinity to opiate kappa receptor at 10 uM
[22] = biological target: Mu-type opioid receptor (Homo sapiens) (UniProt P35372); assay: Binding affinity to opiate mu receptor at 10 uM
[23] = biological target: Voltage-dependent N-type calcium channel subunit alpha-1B (Homo sapiens) (UniProt Q00975); assay: Binding affinity to calcium channel N type at 10 uM
[24] = biological target: Platelet-activating factor receptor (Homo sapiens) (UniProt P25105); assay: Binding affinity to platelet activating factor at 10 uM
[25] = biological target: 5-hydroxytryptamine receptor 7 (Homo sapiens) (UniProt P34969); assay: Binding affinity to serotonin 5HT7 receptor at 10 uM
[26] = biological target: D(1A) dopamine receptor (Homo sapiens) (UniProt P21728); assay: Binding affinity to dopamine D1 receptor at 10 uM
[27] = biological target: Vasopressin V2 receptor (Homo sapiens) (UniProt P30518); assay: Binding affinity to vasopressin V2 receptor at 10 uM
[28] = biological target: Histamine H3 receptor (Homo sapiens) (UniProt Q9Y5N1); assay: Binding affinity to Histamine H3 receptor at 10 uM
[29] = biological target: B1 bradykinin receptor (Homo sapiens) (UniProt P46663); assay: Binding affinity to bradykinin B1 receptor at 10 uM
[30] = biological target: 3',5'-cyclic-AMP phosphodiesterase 4C (Homo sapiens, UniProt Q08493); assay: Inhibition of PDE4C
[31] = biological target: Type-1 angiotensin II receptor (Homo sapiens) (UniProt P30556); assay: Binding affinity to angiotensin II receptor type 1 at 10 uM
[32] = biological target: Type-2 angiotensin II receptor (Homo sapiens) (UniProt P50052); assay: Binding affinity to angiotensin II receptor type 2 at 10 uM
[33] = biological target: D(3) dopamine receptor (Homo sapiens) (UniProt P35462); assay: Binding affinity to dopamine D3 receptor at 10 uM
[34] = biological target: T2, 3',5'-cyclic-AMP phosphodiesterase 4B (Homo sapiens, UniProt Q07343); assay: Inhibition of release of TNF alpha in human whole blood; assay type: functional, tissue-based
T2 sequence (Q07343 whole entry): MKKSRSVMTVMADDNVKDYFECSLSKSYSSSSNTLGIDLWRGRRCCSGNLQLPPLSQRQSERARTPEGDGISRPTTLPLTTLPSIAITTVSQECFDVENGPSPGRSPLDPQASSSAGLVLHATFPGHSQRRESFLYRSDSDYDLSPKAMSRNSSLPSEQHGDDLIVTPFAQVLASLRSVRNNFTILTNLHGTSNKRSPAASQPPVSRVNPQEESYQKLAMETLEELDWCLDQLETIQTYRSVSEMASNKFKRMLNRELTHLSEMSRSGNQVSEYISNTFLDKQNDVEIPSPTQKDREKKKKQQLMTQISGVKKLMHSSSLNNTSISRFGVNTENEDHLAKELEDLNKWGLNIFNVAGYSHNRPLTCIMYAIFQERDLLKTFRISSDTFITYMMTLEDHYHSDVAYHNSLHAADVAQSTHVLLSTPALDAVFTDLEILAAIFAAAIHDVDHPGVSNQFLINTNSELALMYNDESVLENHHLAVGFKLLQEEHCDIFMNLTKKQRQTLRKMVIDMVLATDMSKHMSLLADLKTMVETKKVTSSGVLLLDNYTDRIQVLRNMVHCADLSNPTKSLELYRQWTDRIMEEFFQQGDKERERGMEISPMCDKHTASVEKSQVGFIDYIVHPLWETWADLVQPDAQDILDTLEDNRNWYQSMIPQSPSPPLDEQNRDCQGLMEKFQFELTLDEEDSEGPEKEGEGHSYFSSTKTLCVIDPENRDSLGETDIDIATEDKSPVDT

[35] = biological target: Histamine H2 receptor (Homo sapiens) (UniProt P25021); assay: Binding affinity to Histamine H2 receptor at 10 uM
[36] = biological target: T1, 3',5'-cyclic-AMP phosphodiesterase 4D; assay: Inhibition of release of LTE4 in human whole blood; assay type: functional, tissue-based
[37] = biological target: Sodium-dependent dopamine transporter (Homo sapiens) (UniProt Q01959); assay: Binding affinity to dopamine transporter at 10 uM
[38] = biological target: T2, 3',5'-cyclic-AMP phosphodiesterase 4B; assay: Inhibition of PDE4B
[39] = biological target: Delta-type opioid receptor (Homo sapiens) (UniProt P41143); assay: Binding affinity to opiate delta receptor at 10 uM
[40] = biological target: High affinity choline transporter 1 (Homo sapiens) (UniProt Q9GZV3); assay: Binding affinity to choline transporter at 10 uM
[41] = biological target: 5-hydroxytryptamine receptor 4 (Homo sapiens) (UniProt Q13639); assay: Binding affinity to serotonin 5HT4 receptor at 10 uM
[42] = biological target: D(4) dopamine receptor (Homo sapiens) (UniProt P21917); assay: Binding affinity to dopamine D4 receptor at 10 uM
[43] = biological target: Acetylcholine receptor; alpha1/beta1/delta/gamma (Homo sapiens) (UniProt P02708+P07510+P11230+Q07001); assay: Binding affinity to nicotinic muscle receptor at 10 uM; assay type: protein-complex assay
Cynomolgus monkey = assay: Inhibition of eosinophil infiltration in bronchoalveolar lavage fluid from cynomolgus monkeys exposed to Ascaris suum.; assay type: functional, Macaca fascicularis, Lung
[44] = biological target: 3',5'-cyclic-AMP phosphodiesterase 4A (Homo sapiens, UniProt P27815); assay: Inhibition of PDE4A
[45] = biological target: Sodium-dependent serotonin transporter (Homo sapiens) (UniProt P31645); assay: Binding affinity to serotonin transporter at 10 uM
[46] = biological target: Glutamate receptor ionotropic kainate (Homo sapiens) (UniProt P39086+Q16478+Q16099+Q13002+Q13003); assay: Binding affinity to kainate receptor at 10 uM; assay type: protein-complex assay
[47] = biological target: B2 bradykinin receptor (Homo sapiens) (UniProt P30411); assay: Binding affinity to bradykinin B2 receptor at 10 uM
[48] = biological target: T3, Voltage-gated L-type calcium channel (Homo sapiens, UniProt Q13936+Q13698+Q01668+O60840); assay: Binding affinity to verapamil sensitive calcium channel L type at 10 uM; assay type: protein assay
[49] = biological target: 5-hydroxytryptamine receptor 1A (Homo sapiens) (UniProt P08908); assay: Binding affinity to serotonin 5HT1A receptor at 10 uM
[50] = biological target: Glutamate receptor ionotropic AMPA (Homo sapiens) (UniProt P48058+P42263+P42262+P42261); assay: Binding affinity to AMPA receptor at 10 uM; assay type: protein-complex assay
[51] = biological target: T3, Voltage-gated L-type calcium channel; assay: Binding affinity to dilitiazem sensitive calcium channel L type at 10 uM; assay type: protein assay
[52] = biological target: Thyroid hormone receptor (Homo sapiens) (UniProt P10827+P10828); assay: Binding affinity to thyroid hormone receptor at 10 uM; assay type: protein-complex assay
[53] = Binding affinity to GABA transporter at 10 uM
[54] = biological target: Muscarinic acetylcholine receptor M1 (Homo sapiens) (UniProt P11229); assay: Binding affinity to Muscarinic M1 receptor at 10 uM
[55] = biological target: Muscarinic acetylcholine receptor M3 (Homo sapiens) (UniProt P20309); assay: Binding affinity to Muscarinic M3 receptor at 10 uM
[56] = biological target: Adrenergic receptor alpha-2 (Homo sapiens) (UniProt P08913+P18825+P18089); assay: Binding affinity to Adrenergic alpha-2 receptor at 10 uM; assay type: protein assay
[57] = biological target: T1, 3',5'-cyclic-AMP phosphodiesterase 4D; assay: cAMP elevation in U937 cells; assay type: functional, cell-based, U-937
[58] = biological target: Adenosine receptor A2a (Homo sapiens) (UniProt P29274); assay: Binding affinity to adenosine A2A receptor at 10 uM
[59] = biological target: Glutamate [NMDA] receptor (Homo sapiens) (UniProt Q05586+Q12879+Q13224+O15399+O60391+Q14957+Q8TCU5); assay: Binding affinity to NMDA receptor at 10 uM; assay type: protein-complex assay
[60] = biological target: T3, Voltage-gated L-type calcium channel; assay: Binding affinity to DHP sensitive calcium channel L type at 10 uM; assay type: protein assay
[61] = biological target: T1, 3',5'-cyclic-AMP phosphodiesterase 4D; assay: Inhibition of PDE4D
[62] = biological target: Histamine H1 receptor (Homo sapiens) (UniProt P35367); assay: Binding affinity to Histamine H1 receptor at 10 uM
[63] = Binding affinity to nicotinic neuronal receptor at 10 uM
[64] = biological target: Vasopressin V1 receptor (Homo sapiens) (UniProt P37288+P47901); assay: Binding affinity to vasopressin V1 receptor at 10 uM; assay type: protein assay
[65] = biological target: Adenosine receptor A3 (Homo sapiens) (UniProt P0DMS8); assay: Binding affinity to adenosine A3 receptor at 10 uM
[66] = biological target: Muscarinic acetylcholine receptor M4 (Homo sapiens) (UniProt P08173); assay: Binding affinity to Muscarinic M4 receptor at 10 uM

Chain of High affinity cAMP-specific and IBMX-insensitive 3',5'-cyclic phosphodiesterase 8B (O95263 whole entry): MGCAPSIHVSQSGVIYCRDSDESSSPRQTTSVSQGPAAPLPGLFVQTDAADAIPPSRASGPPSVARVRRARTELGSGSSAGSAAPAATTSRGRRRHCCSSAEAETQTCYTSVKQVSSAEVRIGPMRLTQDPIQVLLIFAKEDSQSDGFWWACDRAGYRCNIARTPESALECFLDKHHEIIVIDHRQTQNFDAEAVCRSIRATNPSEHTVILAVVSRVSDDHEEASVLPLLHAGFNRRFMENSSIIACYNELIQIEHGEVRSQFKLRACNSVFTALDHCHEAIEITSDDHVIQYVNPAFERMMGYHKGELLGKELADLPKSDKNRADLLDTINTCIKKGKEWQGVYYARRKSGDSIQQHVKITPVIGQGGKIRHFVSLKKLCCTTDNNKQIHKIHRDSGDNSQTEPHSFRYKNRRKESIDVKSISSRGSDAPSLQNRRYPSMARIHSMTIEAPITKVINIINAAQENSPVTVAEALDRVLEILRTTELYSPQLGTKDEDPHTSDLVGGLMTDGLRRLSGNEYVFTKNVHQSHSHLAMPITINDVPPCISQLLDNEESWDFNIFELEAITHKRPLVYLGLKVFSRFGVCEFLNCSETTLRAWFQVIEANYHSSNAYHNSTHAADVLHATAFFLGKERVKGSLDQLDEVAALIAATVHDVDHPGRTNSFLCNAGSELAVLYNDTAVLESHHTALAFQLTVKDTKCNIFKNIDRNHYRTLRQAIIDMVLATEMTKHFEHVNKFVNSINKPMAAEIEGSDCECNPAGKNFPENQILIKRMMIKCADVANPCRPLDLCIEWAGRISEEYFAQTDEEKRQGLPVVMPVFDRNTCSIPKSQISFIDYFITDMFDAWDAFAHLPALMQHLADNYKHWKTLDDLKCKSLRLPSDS
Chain of High affinity cGMP-specific 3',5'-cyclic phosphodiesterase 9A (O76083 whole entry): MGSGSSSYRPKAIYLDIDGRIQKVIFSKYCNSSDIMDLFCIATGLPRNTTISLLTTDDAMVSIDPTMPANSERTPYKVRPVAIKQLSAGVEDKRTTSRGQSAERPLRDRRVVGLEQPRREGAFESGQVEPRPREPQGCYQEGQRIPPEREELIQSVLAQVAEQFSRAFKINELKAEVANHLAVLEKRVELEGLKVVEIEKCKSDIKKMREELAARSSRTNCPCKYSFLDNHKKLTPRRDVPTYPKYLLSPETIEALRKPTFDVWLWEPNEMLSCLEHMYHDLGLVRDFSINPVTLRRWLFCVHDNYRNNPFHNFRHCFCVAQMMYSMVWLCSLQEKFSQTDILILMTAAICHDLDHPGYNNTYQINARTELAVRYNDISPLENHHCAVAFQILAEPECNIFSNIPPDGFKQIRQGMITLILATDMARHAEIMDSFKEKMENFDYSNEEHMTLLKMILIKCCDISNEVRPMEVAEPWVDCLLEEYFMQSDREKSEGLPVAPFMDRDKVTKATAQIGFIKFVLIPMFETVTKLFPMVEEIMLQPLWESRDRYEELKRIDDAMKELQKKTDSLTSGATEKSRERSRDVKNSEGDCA

COc1ccc(C2CNC(=O)C2)cc1OC1CCCC1 (centres undefined) [ROLIPRAM]
IC50 (Phosphodiesterase 3): > 16000 nM | IC50 [1]: > 16000 nM | IC50 [2]: > 16000 nM | IC50 [3]: > 16000 nM | IC50 [4]: > 16000 nM | IC50 [5]: > 16000 nM | IC30 [6]: 283 nM

C[C@@H](NC(=O)c1cccnc1Oc1ccc(F)cc1)c1cccs1
Activity [7]: 0% | Activity [8]: 22% | IC50 [9]: > 16000 nM | Activity [10]: 14% | Activity [11]: 12% | Activity [12]: 0% | IC50 [13]: > 16000 nM | Activity [14]: 6% | Activity [15]: 1% | Activity [16]: 0% | Activity [17]: 27% | Activity [18]: 4% | Activity [19]: 12% | Activity [20]: 0% | IC50 (Phosphodiesterase 3): > 16000 nM | Activity [21]: 21% | Activity [22]: 15% | IC50 [1]: > 16000 nM | Activity [23]: 0% | Activity [24]: 23% | Activity [25]: 0% | Activity [26]: 27% | Activity [27]: 9% | Activity [28]: 0% | Activity [29]: 0% | IC50 [30]: 1380 nM | Activity [31]: 3% | Activity [32]: 0% | Activity [33]: 0% | IC50 [34]: 925 nM | Activity [35]: 0% | IC50 [36]: 2 nM | Activity [37]: 23% | IC50 [38]: 185 nM | Activity [39]: 18% | Activity [40]: 60% | Activity [41]: 14% | IC50 [2]: > 16000 nM | Activity [42]: 9% | Activity [43]: 22% | Inhibition (Cynomolgus monkey): 65% | IC50 [4]: > 16000 nM | IC50 [44]: 107 nM | Activity [45]: 0% | IC50 [5]: > 16000 nM | Activity [46]: 0% | Activity [47]: 0% | Activity [48]: 0% | Activity [49]: 5% | Activity [50]: 10% | Activity [51]: 6% | Activity [52]: 8% | Activity [53]: 22% | Activity [54]: 0% | Activity [55]: 5% | Activity [56]: 0% | EC50 [57]: 22 nM | Activity [58]: 23% | Activity [59]: 0% | Activity [60]: 25% | IC50 [61]: 4 nM | Activity [62]: 4% | Activity [63]: 3% | Activity [64]: 26% | IC30 [6]: 16 nM | Activity [65]: 31% | Activity [66]: 12%
